The series in a line: solubility of crystalline zoledronic acid trihydrate compared with the monohydrate. It is filed as physicochemical. The settings on record: relative to zoledronic acid monohydrate; solvent and temperature not stated.

Turning to `O=P(O)(O)C(O)(Cn1ccnc1)P(=O)(O)O` [zoledronic acid trihydrate, (1-Hydroxy-2-imidazol-1-yl-phosphonoethyl) phosphonic acid], the solubility entry is on record as “substantially equal to that of the monohydrate”.

Source of the values: patent publication US20080255366A1, “Crystalline Trihydrate of Zoledronic Acid” (DR. REDDY'S LABORATORIES LIMITED, priority 2005, published 2008).
